Patent US9512107B2, “Therapeutically active compositions and their methods of use” (Agios Pharmaceuticals, Inc., priority 2012, dated 2016)
Changes are numbered by the printed parent chain.

Assays:
[1] = tested on: U87MG pLVX-IDH2 R140Q-neo cells; test: U87MG pLVX-IDH2 R140Q-neo cell based assay, 2-HG in media by LC-MS at 48 hours; conditions: for IC50: Homo sapiens, U-87 MG
Outline: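 2-HG secreted into the medium was measured by LC-MS after 48 h of compound treatment (0.2% DMSO final) of U87MG pLVX-IDH2 R140Q-neo cells in DMEM/10% FBS. The same wells were assayed at 72 h by CellTiter-Glo luminescence for effects on growth.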

IDH2 R172K = molecular target: T1, IDH2 R172K (Homo sapiens, UniProt P48735, R172K); test: IDH2 R172K enzymatic assay (NADPH cofactor depletion, diaphorase/resazurin readout); format: biochemical; conditions: read-out: Enz R172K
T1 sequence (P48735 40-452 R172K): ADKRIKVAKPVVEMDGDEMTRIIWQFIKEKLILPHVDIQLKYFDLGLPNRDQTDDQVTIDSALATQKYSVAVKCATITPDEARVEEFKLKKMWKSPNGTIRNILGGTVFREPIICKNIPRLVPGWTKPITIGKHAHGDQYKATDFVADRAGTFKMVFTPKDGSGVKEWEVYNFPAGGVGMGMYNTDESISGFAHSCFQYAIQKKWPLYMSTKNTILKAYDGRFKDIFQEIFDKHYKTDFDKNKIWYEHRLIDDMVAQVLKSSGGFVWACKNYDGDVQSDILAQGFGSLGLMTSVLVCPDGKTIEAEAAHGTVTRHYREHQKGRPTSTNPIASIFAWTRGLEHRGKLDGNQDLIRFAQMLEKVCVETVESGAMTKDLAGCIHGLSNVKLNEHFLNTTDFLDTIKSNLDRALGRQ
Outline: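 Cofactor depletion format: enzyme + compound 1 h RT; add substrate mix (50 μM NADPH, 6.3 mM α-KG); react 1 h RT; quench with stop mix (36 μg/ml diaphorase, 60 μM resazurin); read resorufin fluorescence as residual NADPH.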

IDH2 R140Q = molecular target: T2, IDH2 R140Q (Homo sapiens, UniProt P48735, R140Q); test: IDH2 R140Q enzymatic assay (cofactor depletion, similar format); format: biochemical; conditions: read-out: Enz R140Q
T2 sequence (P48735 40-452 R140Q): T1 sequence (P48735 40-452 R172K) with R101Q, K133R

IC50 [1]	IC50 (IDH2 R172K)	IC50 (IDH2 R140Q)	SMILES	Cell R140Q [1]
< 100 nM	< 100 nM	100 to 1000 nM	CC(C)Nc1nc(Nc2ccnc(C(F)F)c2)nc(-c2cccc(C(F)F)n2)n1 [Compound 673, 6-(6-Difluoromethyl-pyridin-2-yl)-N-(2-difluoromethyl-pyridin-4-yl)-N′-isopropyl-[1,3,5]triazine-2,4-diamine]	
< 100 nM	< 100 nM	100 to 1000 nM	CC1(CNc2nc(Nc3ccnc(C(F)(F)F)c3)nc(-c3cccc(C(F)(F)F)n3)n2)CCCO1 (stereo not drawn) [Compound 531, N-(2-Methyl-tetrahydro-furan-2-ylmethyl)-6-(6-trifluoromethyl-pyridin-2-yl)-N′-(2-trifluoromethyl-pyridin-4-yl)-[1,3,5]triazine-2,4-diamine]	
< 100 nM	< 100 nM	100 to 1000 nM	CC(C)(C)Nc1nc(Nc2cc(F)cc(F)c2)nc(-c2cccc(N)n2)n1 [Compound 698, 6-(6-aminopyridin-2-yl)-N2-(tert-butyl)-N4-(3,5-difluorophenyl)-1,3,5-triazine-2,4-diamine]	
< 100 nM	< 100 nM	100 to 1000 nM	CC1(Nc2nc(Nc3ccnc(C(F)(F)F)c3)nc(-c3cccc(C(F)(F)F)n3)n2)CC1 [Compound 533, N-(1-Methyl-cyclopropyl)-6-(6-trifluoromethyl-pyridin-2-yl)-N′-(2-trifluoromethyl-pyridin-4-yl)-[1,3,5]triazine-2,4-diamine]	
< 100 nM	100 to 1000 nM	100 to 1000 nM	CC(C)Nc1nc(Nc2ccnc(C(C)(F)F)c2)nc(-c2cccc(N)n2)n1 [Compound 696, 6-(6-aminopyridin-2-yl)-N2-(2-(1,1-difluoroethyl)pyridin-4-yl)-N4-isopropyl-1,3,5-triazine-2,4-diamine]	
< 100 nM	< 100 nM	100 to 1000 nM	CC(C)(C)Nc1nc(Nc2ccnc(C(F)(F)F)c2)nc(-c2cccc(C(F)(F)F)n2)n1 [Compound 602, N2-(tert-butyl)-6-(6-(trifluoromethyl)pyridin-2-yl)-N4-(2-(trifluoromethyl)pyridin-4-yl)-1,3,5-triazine-2,4-diamine]	
100 to 1000 nM	1000 to 10000 nM	100 to 1000 nM	CC(C)Nc1nc(Nc2cccc(S(C)(=O)=O)c2)nc(-c2cc(Cl)cc(Cl)n2)n1 [Compound 483, 6-(4,6-dichloropyridin-2-yl)-N2-isopropyl-N4-(3-(methylsulfonyl)phenyl)-1,3,5-triazine-2,4-diamine]	
< 100 nM	< 100 nM	< 100 nM	CC(C)Nc1nc(Nc2ccccc2)nc(-c2cccc(Cl)n2)n1 [Compound 229, 6-(6-chloropyridin-2-yl)-N^2-isopropyl-N^4-phenyl-1,3,5-triazine-2,4-diamine]	

Further lines, the compound ahead of its results:

SMILES	IC50 [1]	IC50 (IDH2 R172K)	IC50 (IDH2 R140Q)	Cell R140Q [1]
CC1(Nc2nc(Nc3ccccc3)nc(-c3ccccc3)n2)COC1 [Compound 176, N^2-(3-methyloxetan-3-yl)-N^4,6-diphenyl-1,3,5-triazine-2,4-diamine]	100 to 1000 nM	100 to 1000 nM	< 100 nM	
CC(C)Nc1nc(Nc2ccccc2)nc(-c2ccnn2C)n1 [Compound 119]	1000 to 10000 nM	> 10000 nM	100 to 1000 nM	
CC(C)Nc1nc(Nc2cccc(S(C)(=O)=O)c2)nc(-c2c(F)cccc2F)n1 [Compound 466, 6-(2,6-difluorophenyl)-N2-isopropyl-N4-(3-(methylsulfonyl)phenyl)-1,3,5-triazine-2,4-diamine]	< 100 nM	100 to 1000 nM	100 to 1000 nM	
O=C(Cc1ccccc1)Nc1nc(Nc2ccccc2)nc(-c2ccccc2)n1 [Compound 172]	100 to 1000 nM	100 to 1000 nM	< 100 nM	
CCNS(=O)(=O)c1cccc(Nc2nc(NC(C)C)nc(-c3ccccc3)n2)c1 [Compound 204, N-ethyl-3-(4-(isopropylamino)-6-phenyl-1,3,5-triazin-2-ylamino)benzenesulfonamide]	100 to 1000 nM	1000 to 10000 nM	< 100 nM	
CCC(C)Nc1nc(Nc2ccncc2)nc(-c2ccccc2)n1 (stereo not drawn) [Compound 186, N^2-sec-butyl-6-phenyl-N^4-(pyridin-4-yl)-1,3,5-triazine-2,4-diamine]	< 100 nM	100 to 1000 nM	< 100 nM	
CC(C)Nc1nc(Nc2ccccn2)nc(-c2ccccc2)n1 [Compound 155]		> 10000 nM	100 to 1000 nM	No Fit
CS(=O)(=O)c1cc(F)cc(Nc2nc(NCC3CC3)nc(-c3cccc(C(F)(F)F)n3)n2)c1 [Compound 593, N-Cyclopropylmethyl-N′-(3-fluoro-5-methanesulfonyl-phenyl)-6-(6-trifluoromethyl-pyridin-2-yl)-[1,3,5]triazine-2,4-diamine]	< 100 nM	< 100 nM	100 to 1000 nM	
COc1ccc(F)c(-c2nc(Nc3cc(F)cc(F)c3)nc(NC(C)C)n2)n1 [Compound 461, N-(3,5-Difluoro-phenyl)-6-(3-fluoro-6-methoxy-pyridin-2-yl)-N′-isopropyl-[1,3,5]triazine-2,4-diamine]	< 100 nM	< 100 nM	< 100 nM	
c1ccc(-c2nc(Nc3ccncc3)nc(NC3CCCC3)n2)cc1 [Compound 187]	< 100 nM	100 to 1000 nM	< 100 nM	
Cc1ccccc1Nc1nc(NC(C)C)nc(-c2ccccc2)n1 [Compound 147]	100 to 1000 nM	1000 to 10000 nM	100 to 1000 nM	
O=C(Nc1nc(Nc2ccccc2)nc(-c2ccccc2)n1)OCC1CC1 [Compound 232, cyclopropylmethyl 4-phenyl-6-(phenylamino)-1,3,5-triazin-2-ylcarbamate]	100 to 1000 nM	100 to 1000 nM	< 100 nM	
CC(C)Nc1nc(Nc2cncc(Cl)c2)nc(-c2ccccc2)n1 [Compound 194, N^2-(5-chloropyridin-3-yl)-N^4-isopropyl-6-phenyl-1,3,5-triazine-2,4-diamine]	< 100 nM	< 100 nM	< 100 nM	
CC(C)(C)CNc1nc(Nc2ccncc2)nc(-c2ccccc2)n1 [Compound 191, N^2-neopentyl-6-phenyl-N^4-(pyridin-4-yl)-1,3,5-triazine-2,4-diamine]	< 100 nM	100 to 1000 nM	< 100 nM	
c1ccc(Nc2nc(NC3CC3)nc(-c3ccccc3)n2)cc1 [Compound 110]	< 100 nM	100 to 1000 nM	< 100 nM	
CCCCNc1nc(Nc2ccnc(Cl)c2)nc(-c2ccccc2)n1 [Compound 260]	< 100 nM	< 100 nM	< 100 nM	
CC(C)Nc1nc(Nc2cc(F)cc(F)c2)nc(-c2cnc(N)nc2)n1 [Compound 649, 6-(2-aminopyrimidin-5-yl)-N2-(3,5-difluorophenyl)-N4-isopropyl-1,3,5-triazine-2,4-diamine]	100 to 1000 nM	100 to 1000 nM	< 100 nM	
CC(C)Nc1nc(Nc2cc(F)cc(F)c2)nc(-c2nc(N)cc(C(F)(F)F)n2)n1 [Compound 481, 6-(4-amino-6-(trifluoromethyl)pyrimidin-2-yl)-N2-(3,5-difluorophenyl)-N4-isopropyl-1,3,5-triazine-2,4-diamine]	< 100 nM	< 100 nM	100 to 1000 nM	
CC(C)(O)CNc1nc(Nc2ccc(F)nc2)nc(-c2ccccc2F)n1 [Compound 622, 1-(4-(2-fluorophenyl)-6-(6-fluoropyridin-3-ylamino)-1,3,5-triazin-2-ylamino)-2-methylpropan-2-ol]	100 to 1000 nM	100 to 1000 nM	100 to 1000 nM	
